Data on 14 compounds can be found in patent US20250129027A1 (APOGEE PHARMACEUTICALS, INC., priority 2023, published 2025).

Bounds are passed on as bounds.

The target of assay [1] is human recombinant FAAH (Homo sapiens (Human), UniProt O00519). The assay is described as follows: In vitro inhibition of FAAH activity (fluorescent inhibitor screening kit, AMC arachidonoyl amide). It counts as biochemical. To be noted: human recombinant FAAH; read-out: Inhibition on FAAH activity (IC50). The essentials: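 Fluorogenic kit assay: AMC arachidonoyl amide is cleaved by human recombinant FAAH, read at 340-360/450-465 nm. Percent inhibition versus non-treated control; IC50 values derived from multiple compound concentrations where tested.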
Sequence of human recombinant FAAH (O00519 whole entry): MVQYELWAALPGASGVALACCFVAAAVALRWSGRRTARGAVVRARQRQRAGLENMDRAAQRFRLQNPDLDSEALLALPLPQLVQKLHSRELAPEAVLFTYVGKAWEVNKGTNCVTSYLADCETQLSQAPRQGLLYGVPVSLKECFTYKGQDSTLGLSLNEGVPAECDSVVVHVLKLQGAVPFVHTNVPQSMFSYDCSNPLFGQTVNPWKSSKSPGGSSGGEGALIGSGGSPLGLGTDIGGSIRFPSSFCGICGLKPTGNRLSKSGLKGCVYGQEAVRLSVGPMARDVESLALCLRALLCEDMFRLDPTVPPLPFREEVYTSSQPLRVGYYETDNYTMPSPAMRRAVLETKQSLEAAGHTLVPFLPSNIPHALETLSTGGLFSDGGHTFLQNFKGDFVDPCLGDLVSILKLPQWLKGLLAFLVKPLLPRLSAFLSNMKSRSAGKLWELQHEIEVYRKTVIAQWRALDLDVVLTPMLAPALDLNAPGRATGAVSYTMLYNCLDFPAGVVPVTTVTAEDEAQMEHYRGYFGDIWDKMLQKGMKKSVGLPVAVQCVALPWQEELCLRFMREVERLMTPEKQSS

For assay [2], the target named is human recombinant MAGL (Homo sapiens (Human), UniProt Q99685). The experiment in a line: In vitro inhibition of MAGL activity (inhibitor screening kit, 4-nitrophenylacetate). The format is biochemical. The note with it: human recombinant MAGL. The method in brief: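 Colorimetric kit assay: recombinant human MAGL hydrolyses 4-nitrophenylacetate to 4-nitrophenol, read by absorbance at 405-412 nm. Inhibition given as percentage of signal in treated versus untreated MAGL control.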
Sequence of human recombinant MAGL (Q99685 whole entry): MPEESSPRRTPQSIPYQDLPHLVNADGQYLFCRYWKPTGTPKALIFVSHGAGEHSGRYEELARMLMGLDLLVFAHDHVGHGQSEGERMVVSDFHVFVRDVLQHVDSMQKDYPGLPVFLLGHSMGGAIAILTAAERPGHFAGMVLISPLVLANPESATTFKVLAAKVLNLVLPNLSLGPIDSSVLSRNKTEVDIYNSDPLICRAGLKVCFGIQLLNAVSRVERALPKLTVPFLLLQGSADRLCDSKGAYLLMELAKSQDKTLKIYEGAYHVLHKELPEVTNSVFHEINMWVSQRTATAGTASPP

In the case of `O=C(Oc1cccc(-c2cncc(-c3nnco3)c2)c1)N1CCC2(CC1)COC2` [Example 153, 3-(5-(1,3,4-oxadiazol-2-yl)pyridin-3-yl)phenyl 2-oxa-7-azaspiro[3.5]nonane-7-carboxylate], the values for the IC50 in assay [1] and in assay [2] were 1 to 10 µM and > 10 µM, respectively.

Turning to `CCCCN(CCCC)C(=O)Oc1cccc(-c2cncc(-c3nnco3)c2)c1` [Example 155, 3-(5-(1,3,4-oxadiazol-2-yl)pyridin-3-yl)phenyl dibutylcarbamate], the results for the IC50 in assay [1] and in assay [2] were > 1 µM and ~10 µM, respectively.

For the compound `CC1CCC(NC(=O)Oc2ccc(O)c(-c3cncc(-c4nnco4)c3)c2)CC1` (stereo not shown) [Example 159], the IC50 was 0.01 to 0.1 µM in assay [1] and > 10 µM in assay [2].

Take `CCCCCCCCNC(=O)Oc1cc(O)cc(-c2cncc(-c3nnco3)c2)c1` [Example 160, 3-(5-(1,3,4-oxadiazol-2-yl)pyridin-3-yl)-5-hydroxyphenyl octylcarbamate]: the IC50 in assay [1] was in the range of 0.001 to 0.01 µM; in assay [2], 1 to 10 µM.

As to `O=C(NCC1CCCCC1)Oc1cc(O)cc(-c2cncc(-c3nnco3)c2)c1` [Example 161, 3-(5-(1,3,4-oxadiazol-2-yl)pyridin-3-yl)-5-hydroxyphenyl (cyclohexylmethyl)carbamate], the IC50 in assay [1] was 0.01 to 0.1 µM; in assay [2], 10 to 50 µM.

With `O=C(NCc1ccccc1)Oc1cc(O)cc(-c2cncc(-c3nnco3)c2)c1` [Example 162, 3-(5-(1,3,4-oxadiazol-2-yl)pyridin-3-yl)-5-hydroxyphenyl benzylcarbamate], the IC50 was ~0.1 µM in assay [1] and > 10 µM in assay [2].

`O=C(NC1CCCC1)Oc1cc(O)cc(-c2cncc(-c3nnco3)c2)c1` [Example 163, 3-(5-(1,3,4-oxadiazol-2-yl)pyridin-3-yl)-5-hydroxyphenyl cyclopentylcarbamate]: the IC50 in assay [1] was 0.01 to 0.1 µM; in assay [2], > 50 µM.

`O=C(NC1CCCCC1)Oc1cc(O)cc(-c2cncc(-c3nnco3)c2)c1` [Example 164, 3-(5-(1,3,4-oxadiazol-2-yl)pyridin-3-yl)-5-hydroxyphenyl cyclohexylcarbamate]: the IC50 in assay [1] is 0.01 to 0.1 µM; in assay [2] it was > 50 µM.

On to `COc1ccc(OC(=O)NCC2CCCCC2)cc1-c1cncc(-c2nnco2)c1` [Example 168, 3-(5-(1,3,4-oxadiazol-2-yl)pyridin-3-yl)-4-methoxyphenyl (cyclohexylmethyl)carbamate], for which the results for the half-maximal inhibitory concentration (IC50) in assay [1] and in assay [2] were 0.1 to 1 µM and > 10 µM, respectively.

Regarding `COc1ccc(OC(=O)NC2CCCC2)cc1-c1cncc(-c2nnco2)c1` [Example 169, 3-(5-(1,3,4-oxadiazol-2-yl)pyridin-3-yl)-4-methoxyphenyl cyclopentylcarbamate], the IC50 is 0.01 to 0.1 µM in assay [1] and > 10 µM in assay [2].

Consider `COc1ccc(OC(=O)NC2CCCCC2)cc1-c1cncc(-c2nnco2)c1` [Example 170, 3-(5-(1,3,4-oxadiazol-2-yl)pyridin-3-yl)-4-methoxyphenyl cyclohexylcarbamate], for which the IC50 in assay [1] was 0.1 to 1 µM; in assay [2], ~10 µM.

`COc1ccc(OC(=O)NC2CCC(C)CC2)cc1-c1cncc(-c2nnco2)c1` (stereo not shown) [Example 171, 3-(5-(1,3,4-oxadiazol-2-yl)pyridin-3-yl)-4-methoxyphenyl (4-methylcyclohexyl)carbamate]: the IC50 is 0.1 to 1 µM in assay [1] and > 10 µM in assay [2].

For `CCCCCCCCNC(=O)Oc1cc(OC)cc(-c2cncc(-c3nnco3)c2)c1` [Example 174, 3-(5-(1,3,4-oxadiazol-2-yl)pyridin-3-yl)-5-methoxyphenyl octylcarbamate], the IC50 was 0.001 to 0.01 µM in assay [1] and ~10 µM in assay [2].

For the compound `COc1cc(OC(=O)NCC2CCCCC2)cc(-c2cncc(-c3nnco3)c2)c1` [Example 175, 3-(5-(1,3,4-oxadiazol-2-yl)pyridin-3-yl)-5-methoxyphenyl (cyclohexylmethyl)carbamate], the IC50 is ~0.1 µM in assay [1] and > 10 µM in assay [2].
